In ChEMBL document CHEMBL4414666, “Structure-Activity Relationships of Pentacyclic Triterpenoids as Inhibitors of Cyclooxygenase and Lipoxygenase Enzymes” (J Nat Prod, 2019) one finds IC50 and Activity data, which are given here for 13 compounds.

Molecules are shown by their SMILES. pIC50: −log10 of the molar value.

The target in experiment [1] is T1, Polyunsaturated fatty acid 5-lipoxygenase (Homo sapiens, UniProt P09917).
T1 sequence (P09917 whole entry): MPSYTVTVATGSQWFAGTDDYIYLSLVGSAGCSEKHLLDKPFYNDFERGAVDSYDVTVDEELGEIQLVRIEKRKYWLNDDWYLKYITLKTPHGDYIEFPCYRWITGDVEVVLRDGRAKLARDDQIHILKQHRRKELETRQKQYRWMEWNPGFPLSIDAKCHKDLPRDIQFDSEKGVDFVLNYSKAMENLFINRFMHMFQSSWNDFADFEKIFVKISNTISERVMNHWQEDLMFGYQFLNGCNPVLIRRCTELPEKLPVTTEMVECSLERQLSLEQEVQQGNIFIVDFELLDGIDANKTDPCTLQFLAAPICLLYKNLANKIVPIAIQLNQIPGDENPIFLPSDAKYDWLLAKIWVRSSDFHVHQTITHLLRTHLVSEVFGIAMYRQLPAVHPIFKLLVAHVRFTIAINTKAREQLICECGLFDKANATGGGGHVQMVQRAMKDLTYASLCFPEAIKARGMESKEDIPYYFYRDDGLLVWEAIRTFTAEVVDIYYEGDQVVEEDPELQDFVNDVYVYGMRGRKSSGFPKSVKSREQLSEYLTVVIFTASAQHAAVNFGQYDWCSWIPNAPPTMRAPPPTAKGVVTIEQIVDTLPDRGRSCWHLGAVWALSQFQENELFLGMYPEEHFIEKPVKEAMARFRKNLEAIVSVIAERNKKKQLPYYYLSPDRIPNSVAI
As to the kind of experiment: Inhibition of human recombinant 5-LOX expressed in insect cells assessed as decrease in production of 5-HPETE and 5-HETE using arachidonic acid as substrate preincubated for 5 mins followed by substrate addition measured after 20 mins in dark by ferric ion oxidation-xylenol orange method. Conditions: for pIC50: read-out: IC50; call rule not given here.

Experiment [2] concerns the target T2, Polyunsaturated fatty acid 5-lipoxygenase (Homo sapiens) (UniProt P09917).
T2 sequence (whole entry): T1 sequence (P09917 whole entry)
Kind of experiment: Inhibition of human recombinant 5-LOX expressed in insect cells assessed residual activity using arachidonic acid at 42 uM as substrate preincubated for 5 mins followed by substrate addition measured after 20 mins in dark by ferric ion oxidation-xylenol orange method relative to control.

The target in experiment [3] is T3, Polyunsaturated fatty acid lipoxygenase ALOX15B (Homo sapiens, UniProt O15296).
T3 sequence (O15296 whole entry): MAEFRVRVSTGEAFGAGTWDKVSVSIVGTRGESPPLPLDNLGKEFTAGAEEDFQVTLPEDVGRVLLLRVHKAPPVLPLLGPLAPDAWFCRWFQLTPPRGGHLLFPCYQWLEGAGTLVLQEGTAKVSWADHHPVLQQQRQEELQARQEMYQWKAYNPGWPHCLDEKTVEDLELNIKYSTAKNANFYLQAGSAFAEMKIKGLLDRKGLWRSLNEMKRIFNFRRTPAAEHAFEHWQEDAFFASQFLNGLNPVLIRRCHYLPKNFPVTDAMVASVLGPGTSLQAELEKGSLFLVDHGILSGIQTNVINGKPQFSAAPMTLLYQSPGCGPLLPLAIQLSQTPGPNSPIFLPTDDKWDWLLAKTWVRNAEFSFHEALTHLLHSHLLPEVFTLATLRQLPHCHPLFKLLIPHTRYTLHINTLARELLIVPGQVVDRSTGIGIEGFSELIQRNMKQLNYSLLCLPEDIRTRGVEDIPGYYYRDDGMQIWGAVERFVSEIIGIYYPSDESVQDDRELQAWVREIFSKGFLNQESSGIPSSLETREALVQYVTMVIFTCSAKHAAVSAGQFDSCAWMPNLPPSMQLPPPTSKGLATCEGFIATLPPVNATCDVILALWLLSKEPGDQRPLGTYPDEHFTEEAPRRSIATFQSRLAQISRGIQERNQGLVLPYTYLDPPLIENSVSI
As to the kind of experiment: Inhibition of human recombinant N-terminal His-tagged 15-LOX2 expressed in Escherichia coli using arachidonic acid as substrate preincubated for 5 mins followed by substrate addition measured after 20 mins in dark by ferric ion oxidation-xylenol orange assay. Conditions: for pIC50: read-out: IC50.

Experiment [4] concerns the target T4, Polyunsaturated fatty acid lipoxygenase ALOX15B (Homo sapiens) (UniProt O15296).
T4 sequence (whole entry): T3 sequence (O15296 whole entry)
As to the kind of experiment: Inhibition of human recombinant N-terminal His-tagged 15-LOX2 expressed in Escherichia coli assessed as residual activity at 42 uM using arachidonic acid as substrate preincubated for 5 mins followed by substrate addition measured after 20 mins in dark by ferric ion oxidation-xylenol orange assay relative to control.

Experiment [5] deals with T5, Prostaglandin G/H synthase 1 (Ovis aries, UniProt P05979).
T5 sequence (P05979 whole entry): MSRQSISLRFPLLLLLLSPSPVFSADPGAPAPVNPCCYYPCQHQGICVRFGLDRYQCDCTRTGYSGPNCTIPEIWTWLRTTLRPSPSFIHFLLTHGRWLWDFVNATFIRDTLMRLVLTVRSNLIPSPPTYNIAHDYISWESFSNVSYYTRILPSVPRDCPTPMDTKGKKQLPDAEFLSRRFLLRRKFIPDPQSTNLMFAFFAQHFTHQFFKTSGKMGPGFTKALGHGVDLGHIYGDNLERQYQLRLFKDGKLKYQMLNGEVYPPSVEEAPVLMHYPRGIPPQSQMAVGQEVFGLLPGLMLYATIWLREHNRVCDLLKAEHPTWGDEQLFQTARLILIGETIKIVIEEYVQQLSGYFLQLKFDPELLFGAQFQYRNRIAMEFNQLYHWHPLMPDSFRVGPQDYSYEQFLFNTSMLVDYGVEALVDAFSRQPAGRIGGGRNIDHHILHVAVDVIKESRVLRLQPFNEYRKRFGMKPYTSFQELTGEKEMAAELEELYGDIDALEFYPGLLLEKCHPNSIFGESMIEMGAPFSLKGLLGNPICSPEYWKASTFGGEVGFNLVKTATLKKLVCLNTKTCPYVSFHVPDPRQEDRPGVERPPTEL
Description: Inhibition of ovine recombinant COX1 assessed as decrease in formation of PGE2 using arachidonic acid as substrate preincubated for 10 mins followed by substrate addition measured after 45 mins by LC-MS analysis

For experiment [6], the target named is T6, Prostaglandin G/H synthase 2 (Homo sapiens, UniProt P35354).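 Note: recombinant enzyme produced in baculovirus-infected Sf21 cells, arachidonic acid substrate, PGE2 output quantified by LC-MS after 45 min, compounds preincubated 10 min beforehand, lower PGE2 means inhibition.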
T6 sequence (P35354 whole entry): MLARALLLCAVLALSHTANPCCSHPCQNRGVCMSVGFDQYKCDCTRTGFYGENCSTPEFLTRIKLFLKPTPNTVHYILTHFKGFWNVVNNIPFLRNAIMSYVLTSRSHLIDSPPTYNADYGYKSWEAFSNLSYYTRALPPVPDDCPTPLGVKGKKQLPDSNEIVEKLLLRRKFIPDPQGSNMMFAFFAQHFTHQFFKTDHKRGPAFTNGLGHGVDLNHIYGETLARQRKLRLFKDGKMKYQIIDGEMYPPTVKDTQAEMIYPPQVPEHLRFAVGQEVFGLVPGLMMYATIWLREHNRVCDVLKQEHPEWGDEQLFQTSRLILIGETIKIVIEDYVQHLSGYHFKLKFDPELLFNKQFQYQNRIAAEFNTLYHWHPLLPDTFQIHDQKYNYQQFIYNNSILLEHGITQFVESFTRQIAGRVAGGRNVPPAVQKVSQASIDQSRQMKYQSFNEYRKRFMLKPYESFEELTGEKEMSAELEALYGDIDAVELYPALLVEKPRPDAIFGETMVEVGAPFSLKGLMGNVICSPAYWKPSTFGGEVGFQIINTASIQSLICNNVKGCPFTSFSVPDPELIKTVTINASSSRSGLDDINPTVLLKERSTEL
Kind of experiment: biochemical. In kind it is cell-based, Sf21. Conditions: for IC50: sf21; for pIC50: read-out: IC50.
Description: Inhibition of human recombinant COX2 expressed in baculovirus infected sf21 cells assessed as decrease in PGE2 formation using arachidonic acid as substrate preincubated for 10 mins followed by substrate addition measured after 45 mins by LC-MS analysis

For `CC1(C)CC[C@]2(C(=O)O)CC[C@]3(C)C(=CC[C@@H]4[C@@]5(C)CC[C@H](O)[C@@](C)(CO)[C@@H]5CC[C@]43C)[C@@H]2C1` [HEDERAGENIN], the pIC50 in experiment [1] and in experiment [3] was under 4.40 throughout. Further, the values for the Activity in experiment [2] and in experiment [4] were 59.8% and 64.7%, respectively. In addition, the IC50 entry in experiment [5] and in experiment [6] was “Not Active” in each case.

Turning to `CC1(C)CC[C@]2(C(=O)O)CC[C@]3(C)C(=CC[C@@H]4[C@@]5(C)C[C@H](O)[C@H](O)[C@@](C)(CO)[C@@H]5CC[C@]43C)[C@@H]2C1`, the pIC50 in experiment [1] and in experiment [6] was under 4.40 throughout. In addition, the values for the Activity in experiment [2] and in experiment [4] were 71.9% and 100%, respectively. The IC50 entry in experiment [3] and in experiment [5] was “Not Active” in each case.

Consider `CC1(C)CC[C@]2(C(=O)O)CC[C@]3(C)C(=CC[C@@H]4[C@@]5(C)CC[C@H](O)[C@@](C)(C(=O)O)[C@@H]5CC[C@]43C)[C@@H]2C1`, for which, in experiment [1], the pIC50 (usually −log10 of the IC50, conventionally taken in molar units) is under 4.40. Further, the Activity was 86% in experiment [2] and 100% in experiment [4]. Moreover, the IC50 result in experiment [3], in experiment [5] and in experiment [6] was “Not Active” throughout.

`CC1(C)CC[C@]2(CO)CC[C@]3(C)C(=CC[C@@H]4[C@@]5(C)CC[C@H](O)C(C)(C)[C@@H]5CC[C@]43C)[C@@H]2C1` [ERYTHRODIOL]: the pIC50 in experiment [1] is under 4.40. Moreover, the figures for the Activity in experiment [2] and in experiment [4] were 60.7% and 100%, respectively. Also, the IC50 entry in experiment [3], in experiment [5] and in experiment [6] was “Not Active” in each case.

Turning to `CC1(C)CC[C@]2(C)CC[C@]3(C)C(=CC[C@@H]4[C@@]5(C)CC[C@H](O)C(C)(C)[C@@H]5CC[C@]43C)[C@@H]2C1` [beta-AMYRIN], the negative logarithm of the IC50 (pIC50) in experiment [1] and in experiment [3] was under 4.40 in each case. The Activity in experiment [2] is 73.3%; in experiment [4], 97.2%. Moreover, the IC50 entry in experiment [5] and in experiment [6] was “Not Active” in each case.

Regarding `C[C@H]1[C@H](C)CC[C@]2(C)CC[C@]3(C)C(=CC[C@@H]4[C@@]5(C)CCC(=O)C(C)(C)[C@@H]5CC[C@]43C)[C@H]12`, the IC50 result in experiment [1], in experiment [3] and in experiment [5] was “Not Active” each time. The Activity in experiment [2] and in experiment [4] was 100% throughout. In addition, in experiment [6], the negative-log IC50 (pIC50) was under 4.40.

`CC1(C)CC[C@]2(C)CC[C@]3(C)C(=CC[C@@H]4[C@@]5(C)CC[C@H](O)[C@](C)(CO)[C@@H]5CC[C@]43C)[C@@H]2C1`: the pIC50 in experiment [1] is 4.51. Moreover, the Activity in experiment [2] is 29.8%; in experiment [4], 100%. Besides, the IC50 entry in experiment [3], in experiment [5] and in experiment [6] was “Not Active” in each case.

Take `CC1(C)[C@@H](O)CC[C@]2(C)[C@H]3CC=C4[C@@H]5C[C@@](C)(CO)CC[C@]5(C)CC[C@@]4(C)[C@]3(C)CC[C@@H]12`: the results for the pIC50 in experiment [1] and in experiment [6] were 4.50 and under 4.40, respectively. Further, the Activity in experiment [2] turned out to be 34.8%; in experiment [4] it was 100%. Moreover, the IC50 result in experiment [3] and in experiment [5] was “Not Active” in each case.

Take `C[C@H]1[C@H](C)CC[C@]2(C)CC[C@]3(C)C(=CC[C@@H]4[C@@]5(C)CC[C@H](O)C(C)(C)[C@@H]5CC[C@]43C)[C@H]12`: in experiment [1], the pIC50 was under 4.40. The Activity in experiment [2] came out at 55.5%; in experiment [4], 100%. The IC50 result in experiment [3], in experiment [5] and in experiment [6] was “Not Active” throughout.

As to `CC1(C)[C@@H](O)CC[C@]2(C)[C@H]3C(=O)C=C4[C@@H]5C[C@@](C)(C(=O)O)CC[C@]5(C)CC[C@@]4(C)[C@]3(C)CC[C@@H]12` [ENOXOLONE], the negative logarithm of the IC50 (pIC50) in experiment [1] was 4.61; in experiment [3] it was under 4.40; in experiment [6], under 4.40. Moreover, the Activity in experiment [2] was 28.3%; in experiment [4] it was 98.6%. The IC50 result in experiment [5] was “Not Active”.

On to `CC1(C)CC[C@]2(C(=O)O)CC[C@]3(C)C(=CC[C@@H]4[C@@]5(C)CC[C@H](O)[C@@](C)(C=O)[C@@H]5CC[C@]43C)[C@@H]2C1`, for which the IC50 entry in experiment [1], in experiment [3], in experiment [5] and in experiment [6] was “Not Active” throughout. The Activity in experiment [2] and in experiment [4] was 100% in each case.

Turning to `CC1(C)CC[C@]2(C)CC[C@]3(C)C(=CC(=O)[C@@H]4[C@@]5(C)CC[C@H](O)C(C)(C)[C@@H]5CC[C@]43C)[C@@H]2C1`, the pIC50 in experiment [1] and in experiment [6] was under 4.40 each time. Moreover, the Activity worked out at 70.4% in experiment [2] and 100% in experiment [4]. Moreover, the IC50 result in experiment [3] and in experiment [5] was “Not Active” each time.

Consider `C[C@H]1[C@H](C)CC[C@]2(CO)CC[C@]3(C)C(=CC[C@@H]4[C@@]5(C)CC[C@H](O)C(C)(C)[C@@H]5CC[C@]43C)[C@H]12` [UVAOL], for which the values for the Activity in experiment [2] and in experiment [4] were 45% and 70.2%, respectively. The pIC50 in experiment [3] was under 4.40. In addition, the IC50 entry in experiment [5] and in experiment [6] was “Not Active” in each case.
